molecular target: PKC-η (Homo sapiens, UniProt P24723); experiment: Kinome profiling; assay type: biochemical; details: 100 nM, read-out: Inhibitory activity
Description: The kinome-wide selectivity was determined following the methods previously reported by Mohedas et al., ACS Chem Biol 2013, 8, 1291-1302 and […] et al., PLoS One 2013, 8, e62721.

Sequence of PKC-η (P24723 whole entry): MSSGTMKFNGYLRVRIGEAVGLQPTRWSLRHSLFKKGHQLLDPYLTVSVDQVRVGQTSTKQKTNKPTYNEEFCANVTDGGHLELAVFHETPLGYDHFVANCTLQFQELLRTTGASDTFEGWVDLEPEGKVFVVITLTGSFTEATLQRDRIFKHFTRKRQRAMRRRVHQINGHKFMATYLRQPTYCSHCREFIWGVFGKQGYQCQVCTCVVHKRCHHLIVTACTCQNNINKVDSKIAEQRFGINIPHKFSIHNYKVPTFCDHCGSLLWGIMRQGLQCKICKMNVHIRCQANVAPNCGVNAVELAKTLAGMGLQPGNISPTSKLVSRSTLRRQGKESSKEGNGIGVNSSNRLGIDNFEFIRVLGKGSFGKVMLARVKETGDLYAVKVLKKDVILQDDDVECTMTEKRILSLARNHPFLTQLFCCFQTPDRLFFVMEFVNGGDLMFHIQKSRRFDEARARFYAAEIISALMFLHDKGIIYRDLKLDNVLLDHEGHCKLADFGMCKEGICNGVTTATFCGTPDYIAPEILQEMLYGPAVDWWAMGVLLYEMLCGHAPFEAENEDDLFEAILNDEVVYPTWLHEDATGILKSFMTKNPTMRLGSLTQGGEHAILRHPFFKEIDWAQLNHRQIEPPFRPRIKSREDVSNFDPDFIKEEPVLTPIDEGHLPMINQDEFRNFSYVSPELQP

For `COc1cc(-c2cc(-c3ccc(N4CCNCC4)cc3)cnc2N)cc(OC)c1OC` [Compound 15, 5-(4-(piperazin-1-yl)phenyl)-3-(3,4,5-trimethoxyphenyl)pyridin-2-amine], the inhibition at 0.1 µM was 5%.

molecular target: T1, ALK2 (Homo sapiens, UniProt Q04771, Q207D); experiment: Thermal shift kinase assay; assay type: binding; details: ALK2 ΔTm minus ALK5 ΔTm
T1 construct: His tag (N, cleaved yes); made in house; host or cells: Sf9 insect cells (baculovirus)
T1 sequence (Q04771 201-499 Q207D): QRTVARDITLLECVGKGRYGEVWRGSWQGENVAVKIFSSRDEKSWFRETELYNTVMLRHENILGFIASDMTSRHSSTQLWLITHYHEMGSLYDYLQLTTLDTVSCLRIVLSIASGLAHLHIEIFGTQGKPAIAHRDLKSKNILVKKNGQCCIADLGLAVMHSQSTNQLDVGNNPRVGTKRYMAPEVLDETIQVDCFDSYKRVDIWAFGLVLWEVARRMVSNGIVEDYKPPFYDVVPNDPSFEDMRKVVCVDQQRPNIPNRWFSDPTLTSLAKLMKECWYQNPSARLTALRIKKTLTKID
Description: Thermal melting experiments were performed using a Real Time PCR machine Mx3005p (Stratagene) with a protein concentration of 1-2 μM and 10 μM inhibitor as described by Niesen et al., Nat Protoc 2007, 2, 2212-21. Recombinant human kinases for DSF screening were prepared by SGC using the published methods of […] et al., PLoS One 2013, 8, e62721. The potency and selectivity of certain compounds of the invention based on thermal shift kinase and ligand induced transcriptional activity assays are shown in Table 2.

Point of comparison: `COc1ccc(-c2cc(-c3ccc(N4CCNCC4)cc3)cnc2N)cc1` [Compound 20, 3-(4-methoxyphenyl)-5-(4-(piperazin-1-yl)phenyl)pyridin-2-amine], “ΔTm Diff.” value 4.5 °C. Against it:
- COc1cc(-c2cc(-c3ccc(N4CCNCC4)cc3)cnc2N)cc(OC)c1OC [Compound 15, 5-(4-(piperazin-1-yl)phenyl)-3-(3,4,5-trimethoxyphenyl)pyridin-2-amine] — lower, 1.2 °C
- COc1cc(-c2cnn3cc(-c4ccc(N5CCNCC5)cc4)cnc23)cc(OC)c1OC [Compound 32, 3-(3,4,5-trimethoxyphenyl)-6-[4-(1-piperazinyl)phenyl]pyrazolo[1,5-a]pyrimidine] — lower, 2.6 °C
- COc1ccc(-c2cc(-c3ccc(N4CCNCC4)cc3)cnc2N)cc1OC [Compound 16, 3-(3,4-dimethoxyphenyl)-5-(4-(piperazin-1-yl)phenyl)pyridin-2-amine] — lower, 4.3 °C
- Nc1ncc(-c2ccc(N3CCNCC3)cc2)cc1-c1ccnc2ccccc12 [Compound 29] — lower, 3.4 °C
- COc1cc(-c2cc(-c3cccc(NS(C)(=O)=O)c3)cnc2N)cc(OC)c1OC [Compound 13, N-(3-(6-amino-5-(3,4,5-trimethoxyphenyl)pyridin-3-yl)phenyl)methanesulfonamide] — lower, 0.9 °C
- COc1cccc(-c2cc(-c3ccc(N4CCNCC4)cc3)cnc2N)c1 [Compound 18, 3-(3-methoxyphenyl)-5-(4-(piperazin-1-yl)phenyl)pyridin-2-amine] — lower, 3.8 °C
- Nc1ncc(-c2cccc(N3CCNCC3)c2)cc1-c1ccnc2ccccc12 [Compound 30, 5-(3-(piperazin-1-yl)phenyl)-3-(quinolin-4-yl)pyridin-2-amine] — lower, 2.5 °C
- COc1cc(OC)cc(-c2cncc(-c3ccc(N4CCNCC4)cc3)c2)c1 [Compound 33, 1-(4-(5-(3,5-dimethoxyphenyl)pyridin-3-yl)phenyl)piperazine] — higher, 4.7 °C
- COc1cc(-c2cc(-c3cccc(N4CCNCC4)c3)cnc2N)cc(OC)c1OC [Compound 14, 5-(3-(piperazin-1-yl)phenyl)-3-(3,4,5-trimethoxyphenyl)pyridin-2-amine] — lower, 0.8 °C
- Nc1ncc(-c2ccc(N3CCNCC3)cc2)cc1-c1ccc2c(c1)OCCO2 [Compound 19, 3-(2,3-dihydrobenzo[b][1,4]dioxin-6-yl)-5-(4-(piperazin-1-yl)phenyl)pyridin-2-amine] — lower, 4.0 °C
- COc1cc(-c2cc(-c3ccc(N4CCNCC4)cc3)cnc2N(C)C)cc(OC)c1OC [Compound 25, N,N-dimethyl-5-(4-(piperazin-1-yl)phenyl)-3-(3,4,5-trimethoxyphenyl)pyridin-2-amine] — lower, 0.1 °C
- COc1cc(-c2cc(-c3ccc(N4CCNCC4)cc3)cnc2OC)cc(OC)c1OC [Compound 28, 1-(4-(6-methoxy-5-(3,4,5-trimethoxyphenyl)pyridin-3-yl)phenyl)piperazine] — lower, 0.1 °C
- CC(C)Oc1cccc(-c2cc(-c3ccc(N4CCNCC4)cc3)cnc2N)c1 [Compound 21, 3-(3-isopropoxyphenyl)-5-(4-(piperazin-1-yl)phenyl)pyridin-2-amine] — lower, 1.0 °C
- Nc1ncc(-c2ccc(N3CCNCC3)cc2)cc1-c1cccc2ncccc12 [Compound 31, 5-(4-(piperazin-1-yl)phenyl)-3-(quinolin-5-yl)pyridin-2-amine] — lower, 4.2 °C
- COc1cc(-c2cc(-c3ccc(O)cc3)cnc2N)cc(OC)c1OC [Compound 11, 4-(6-Amino-5-(3,4,5-trimethoxyphenyl)pyridin-3-yl)phenol] — lower, 1.5 °C
- COc1cc(-c2cc(-c3ccc(N4CCNCC4)cc3)cnc2N)ccc1Cl [Compound 22, 3-(4-chloro-3-methoxyphenyl)-5-(4-(piperazin-1-yl)phenyl)pyridin-2-amine] — lower, 2.7 °C
- COc1cc(-c2cc(-c3ccc(N4CCNCC4)cc3)cnc2N)ccc1C [Compound 23, 3-(3-methoxy-4-methylphenyl)-5-(4-(piperazin-1-yl)phenyl)pyridin-2-amine] — lower, 3.8 °C
- COc1cc(-c2cnc(N)c(-c3cc(OC)c(OC)c(OC)c3)c2)ccc1O [Compound 12, 4-(6-amino-5-(3,4,5-trimethoxyphenyl)pyridin-3-yl)-2-methoxyphenol] — lower, 1.7 °C
- COc1cc(-c2cc(-c3ccc(N4CCNCC4)cc3)cnc2C)cc(OC)c1OC [Compound 10, 1-(4-(6-methyl-5-(3,4,5-trimethoxyphenyl)pyridin-3-yl)phenyl)piperazine] — lower, 4.0 °C
- COc1cc(OC)cc(-c2cc(-c3ccc(N4CCNCC4)cc3)cnc2N)c1 [Compound 17, 3-(3,5-dimethoxyphenyl)-5-(4-(piperazin-1-yl)phenyl)pyridin-2-amine] — lower, 3.5 °C
- COc1cc(-c2cncc(-c3ccc(N4CCNCC4)cc3)c2)cc(OC)c1OC [Compound 26, 1-(4-(5-(3,4,5-trimethoxyphenyl)pyridin-3-yl)phenyl)piperazine] — lower, 3.7 °C
- COc1cc(-c2cc(-c3cccc(O)c3)cnc2N)cc(OC)c1OC [Compound K02288, 3-(6-Amino-5-(3,4,5-trimethoxyphenyl)pyridin-3-yl)phenol, reference compound] — lower, 2.0 °C
- CNc1ncc(-c2ccc(N3CCNCC3)cc2)cc1-c1cc(OC)c(OC)c(OC)c1 [Compound 24, N-methyl-5-(4-(piperazin-1-yl)phenyl)-3-(3,4,5-trimethoxyphenyl)pyridin-2-amine] — lower, −0.5 °C
- COc1cc(-c2cc(-c3ccc(N4CCNCC4)cc3)cnc2Cl)cc(OC)c1OC [Compound 27, 1-(4-(6-chloro-5-(3,4,5-trimethoxyphenyl)pyridin-3-yl)phenyl)piperazine] — lower, 3.8 °C

Reference: patent publication US20170305883A1, “Compositions and Methods for Inhibiting BMP” (THE BRIGHAM AND WOMEN'S HOSPITAL, INC., priority 2014, published 2017)
